From patent US6838084B1, “Cytotoxic T-cell epitopes of the papilloma virus l1-protein and use thereof in diagnosis and therapy” (priority 1999, dated 2005) come the findings set out here.

Holding throughout (type): cell-based, human
Experiment [1] deals with CVLP-stimulated T cells. As to the kind of experiment: Restimulation of CVLP-stimulated T cells with peptide pools, HLA A1-positive donor. The following applies: common to pools E and 6. As to the method:
The name of the particular peptide pool with which the PBMCs were loaded is listed from left to right. “None” represents PBMCs which were incubated only with buffer.
Human T cells (4×10^5) of an HLA A1-positive donor were stimulated with HPV16 L1ΔC·E71-55 CVLPs at 37° C. for 6 weeks with weekly addition of 1 μg/ml CVLPs and 10^5 antigen-presenting cells (irradiated PMBCs), and harvested.
(§1) The 20 mer peptides 1 to 51 were combined in peptide pools A to H and 1 to 7 according to the matrix
(§2) The T cells of an HLA A1-positive donor were then restimulated in 100 μl of medium at 37° C. with the peptide pools in the presence of 10 IU/ml IL2. In this connection, such amounts of peptide pools were used that for each individual peptide 1 μg/ml was added. Cells incubated only with buffer served as a negative control.
(§3) After one hour, 1 μl of Golgi Plug was added. The cells were incubated at 37° C. for a further 5 hours. The cells were then fixed and permeabilized, and stained with α-hum CD8/PE, with α-hum CD4/Cychrome and with α-hum γ-interferon/FITC. The cells were examined in a FACScan calibur with respect to their label and the data were analyzed with the aid of Cellquest software.

Experiment [2] deals with BLCL cells of an HLA A24-positive donor. Description: Lysis of BLCL cells loaded with peptide 9 (51Cr release). As to the method:
The target cells were lysed by T cells stimulated with peptides 1-43 (=effector cells) . […] The % values were calculated according to the formula given in Example 7.
BLCL cells of an HLA A24-positive donor were incubated with […] at 37° C. for one hour, washed three times with medium and divided into 2 aliquots. 10 μg/ml of peptide 9 were added to one aliquot of the cells, and the other aliquot served as a negative control in the absence of a peptide. Subsequently, in each case 2000 cells (=target cells). were added to increasing amounts of T cells (=effector cells) in a total volume of 150 μl. The T cells had been stimulated previously over 5 weeks with a mixture of 43 peptides (peptides 1-43, 1 μg/ml each). Reaction mixtures for spontaneous and maximum cell lysis were set up in parallel. For spontaneous lysis, target cells which were incubated in medium were used, and for maximum lysis target cells which were incubated with 0.5% Triton were used. The mixtures were incubated at 37° C. for 5 h. 50 μl of mixture supernatant were applied to Luma plates and dried at room temperature overnight. On the following morning, the amount of radioactive ^51Cr was determined with the aid of a Canberra-Packerd B-plate counter (counts) and compared to the maximal lysed cells of the Triton mixture. The percentage of specific lysis was determined according to the formula: x=100·(counts−spontaneous counts)/(maximal counts−spontaneous counts).

Experiment [3] relates to CVLP-stimulated T cells. As to the kind of experiment: Restimulation of CVLP-stimulated T cells with peptide pools, HLA A24-positive donor. The following applies: common to pools A and 2. As to the method: The name of the particular peptide pool with which the BLCLs were loaded is listed from left to right. “None” represents BLCLs which were incubated only with buffer.
as §1, §2, §3
Furthermore, the T cells of an HLA A24-positive donor were restimulated with the peptide pools as above and analyzed.

“MLDLQPETTDLYCYEQLNDS (Human papillomavirus type 16) [Peptide 45]”: the “peptide responsible for restimulation, deduced from pool matrix” value in the experiment on CVLP-stimulated T cells [1] is “in all probability responsible for restimulation of CVLP-stimulated T cells”.
Regarding SFYNPDTQRLVWACVGVEVG [Peptide 9], the “lysis of peptide-loaded BLCL target cells by T cells (51Cr release)” value in experiment [2] (10 μg/ml peptide, effector T cells stimulated 5 weeks with peptides 1-43, 5 h, FIG. 8) is on record as “lyse BLCL cells loaded with peptide 9 effectively”. Besides, in experiment [2] (Table 2), the “Epitop-Information (HLA restriction)” value is on record as “HLA A24 restr” and the “Epitop-Information (epitope type)” value is listed as “cytotoxic epitope”. Besides, the epitope classification entry in experiment [2] (conclusion from FIG. 8) is “HLA A24-restricted cytotoxic T-cell epitope”. Also, the “peptide responsible for restimulation, deduced from pool matrix” value in the experiment on CVLP-stimulated T cells [3] was “in all probability responsible for restimulation of CVLP-stimulated T cells”.
